From patent US5185338A, “Medicament for treating cerebral insufficiency diseases, novel 2-(1-piperazinyl)-4-phenylcycloalkanopyrimidine derivatives, and process for the production thereof” (Dainippon Pharmaceutical Co., Ltd., priority 1989, dated 1993)
Like-named read-outs stand apart in the source and are kept apart here.

How the values were obtained:
[1] = U.S. Pat. No. 3,915,976; U.S. Pat. No. 3,305,553; cited from earlier work
dopamine (D2) receptor = target: T1, dopamine (D2) receptor (Rattus norvegicus, UniProt P61169); assay: Dopamine (D2) receptor binding assay, [3H] spiperone; parameters: species or system rats; conditions: rat brain crude synaptosome fractions
T1 construct: Crude synaptosome fractions prepared from some brain regions in rats were used as the receptor sources; from tissue
Experimental: (§1) Effect of binding to dopamine (D2), serotonin (S1, S2) and adrenaline (α1) receptor (in vitro receptor binding assay):
(§2) Dopamine (D2), serotonin (S1, S2) and adrenaline (α1) receptor binding assays were carried out according to the methods of I. Creese et al. [Eur. J. Pharmacol., 46, 377 (1977)], S. J. Peroutka et al. [Mol. Pharmacol., 16, 687 (1979)], J. E. Leysen et al. [Mol. Pharmacol., 21, 301 (1982)], and D. C. U'Prichard et al. [Mol. Pharmacol., 13, 454 (1977)], respectively.
(§3) Crude synaptosome fractions prepared from some brain regions in rats were used as the receptor sources, and [^3 H] spiperone (D2), [^3 H] serotonin (S1), [^3 H] ketanserin (S2) and [^3 H] WB-4101 (α1) were used as the labelled ligands. The binding assay was performed by incubating aliquots of synaptosome fraction in buffer solution (final volume 1 ml) containing the receptor source and the labelled ligand in the presence of a test compound having various concentration thereof for a fixed time. The assay was terminated by rapid filtration through Whatman GF/B glass fiber filters attached to a cell-harvester (Brandel) and radioactivity on the filters was counted with a scintillation counter. Specific binding was calculated as a difference between the amount of radioactivity in the assay group and that in the control group which was separately measured likewise in the presence of an excess amount of an unlabelled ligand [spiperone (D2), serotonin (S1), methysergide (S2) and prazosin (α1)] instead of […]. The IC50 value of the test compounds (i.e. the concentration causing 50% inhibition of the labelled ligand specific binding) was determined by probit analysis.

[2] = system: scopolamine-induced hypermotility; assay: Antagonistic effect on scopolamine-induced hypermotility; type: in vivo, mice (Std-ddY strain); conditions: Mus musculus, po, read-out: Inhibitory ratio (% antagonism of scopolamine-induced hypermotility)
Experimental: Antagonistic effect on scopolamine-induced hypermotility:
A test compound was orally administered to each mouse, and 90 minutes after the administration, each one test animal was placed within a test cage (25×35×30 cm). After 30 minutes, scopolamine hydrobromide (1 mg/kg) was intraperitoneally administered to the mice and then the motility was measured with Animex activity meter for 30 minutes. The effect of test compounds was expressed as % antagonism (complete antagonism to the motility level of non-dosed animals=100%).

[3] = system: scopolamine-induced deficit of spontaneous alternation behavior; assay: Improving effect on scopolamine-induced deficit of spontaneous alternation behavior (T-maze); type: in vivo, mice (Std-ddY strain); conditions: scopolamine hydrobromide 1 mg/kg, non-dosed mice=100%
Text: Improving effect on scopolamine-induced deficit of spontaneous alternation behavior:
A group of 15-25 male mice (Std-ddY strain, 22-28 g) was used for evaluating effect of the test compounds on scopolamine-induced deficit of spontaneous alternation in a T-maze, which is a known animal model of memory impairment due to hypofunction of the cholinergic nervous system. The T-maze used consists of a stem and two arms which are 25 cm long, 5 cm wide and 10 cm high. The first 10 cm of the stem and last 10 cm of each arm are divided by sliding doors into start and goal boxes.
A test compound and scopolamine hydrobromide (1 mg/kg) were intraperitoneally administered to each mouse, and after 30 minutes a test of spontaneous alternation task in the T-maze was continuously repeated for 8 trials. Commonly, naive mice alternate each (right and left) goal box in turn, but scopolamine-treated animals tend to enter the same goal box repeatedly. The effect of the test compounds was expressed as % improvement (complete improvement to the alternation level of non-dosed mice=100%).

[4] = system: cycloheximide-induced amnesia of passive avoidance response; assay: Improving effect on cycloheximide-induced amnesia of passive avoidance response; type: in vivo, mice (Std-ddY strain); conditions: cycloheximide 60 mg/kg s.c., retention trial at 24 hours, non-dosed animals=100%
Text: Improving effect on cycloheximide-induced amnesia of passive avoidance response:
Anti-amnesic effect of the test compounds was examined using mice given cycloheximide which is a known amnesia-inducing agent.
A group of 15-20 male mice (Std-ddY strain, 27-33 g) was subjected to training and retention trials for a passive avoidance task in a step-down apparatus (30×30×50 cm) with a grid floor and a wooden platform (4×4×4 cm) in a center of the floor. In the training trial, each mouse was first placed on the platform, and when the mouse stepped down on the grid floor, an electric shock (1 Hz, 0.5 sec, 60 VDC) was delivered to the feet for 15 seconds. Immediately after the training trial, cycloheximide (60 mg/kg, s.c.) and a test compound (i.p.) were administered. The retention trial was carried out 24 hours thereafter, and the time from placing again each mouse on the platform until stepping down on the grid floor (step-down latency) was measured. The step-down latency in the retention trial was markedly shortened by treatment of cycloheximide (amnesia). The effect of test compounds was assessed by % improvement (complete improvement to the latency level of non-dosed animals=100%).

serotonin (S2) receptor = target: T2, serotonin (S2) receptor (Rattus norvegicus, UniProt P14842); assay: Serotonin (S2) receptor binding assay, [3H] ketanserin; parameters: species or system rats; conditions: rat brain crude synaptosome fractions
T2 construct: Crude synaptosome fractions prepared from some brain regions in rats were used as the receptor sources; from tissue
Experimental: as §1, §2, §3

serotonin (S1) receptor = assay: Serotonin (S1) receptor binding assay, [3H] serotonin; parameters: species or system rats; conditions: rat brain crude synaptosome fractions
Experimental: as §1, §2, §3

adrenaline (α1) receptor = assay: Adrenaline (α1) receptor binding assay, [3H] WB-4101; parameters: species or system rats; conditions: rat brain crude synaptosome fractions
Experimental: as §1, §2, §3

[5] = system: brain serotonin metabolite, 5-hydroxyindole-3-acetic acid (5-HIAA); assay: Increasing effect on concentration of brain serotonin metabolite (5-HIAA); type: in vivo, mice (Std-ddY strain); conditions: Mus musculus, 2 h, two hours after treatment, 5-HIAA level of non-dosed animals=100%
Text: Increasing effect on concentration of brain serotonin metabolite:
A group of 5 male mice (Std-ddY strain, 25-30 g) was used for examining effect of the test compounds on concentration of a brain serotonin metabolite, 5-hydroxyindole-3-acetic acid (5-HIAA).
Mice were killed by decapitation two hours after the treatment with the test compounds. Brains were quickly taken out, homogenized in 1N formic acid-acetone solution, and centrifuged in a refrigerated ultracentrifuge. The supernatant was evaporated by blowing with N2 gas, and then, the residue was again dissolved in 0.01N acetic acid, and served for determining 5-HIAA concentration by high performance liquid chromatography with electrochemical detection. The effect of the test compounds on 5-HIAA concentration was shown as % of control (5-HIAA level of non-dosed animals=100%).

mice = assay: Acute toxicity; type: in vivo, mice (Std-ddY strain); conditions: 200 mg/kg orally; 7 days observation; 5 male mice
Experimental: Experiment 8 Acute toxicity
A group of 5 male mice (Std-ddY strain, 25-30 g) was used. The test compound (200 mg/kg) was orally administered to the test animal in the form of a 0.5% tragacanth solution or suspension, and for 7 days after the administration of the test compound, the lethality of animals was observed.

[6] = system: sodium nitrite-induced anemic hypoxia; assay: Protective effect on sodium nitrite-induced anemic hypoxia; type: in vivo, mice (Std-ddY strain); conditions: 10 mg/kg i.p., 2 hours before sodium nitrite 225 mg/kg i.p.; vs sodium nitrite alone
Text: Protective effect on sodium nitrite-induced anemic hypoxia:
It is known that sodium nitrite (NaNO2) induces anemic hypoxia by converting hemoglobin to metohemoglobin, resulting in a severe impairment of brain function and ultimately in death. Based on the above knowledge, prolongation of survival time after sodium nitrite treatment was used as an index for antihypoxic effect of the test compounds.
A group of 20 male mice (Std-ddY strain, 25-30 g) was intraperitoneally given a test compound (10 mg/kg), and 2 hours after the treatment with the test compound, a lethal amount (225 mg/kg) of sodium nitrite was intraperitoneally administered, and then, the survival time of each mouse was measured. The effect of the test compounds was assessed by the prolongation rate (%) of survival time compared with that of the animals treated with sodium nitrite alone.

[7] = Chem. Pharm. Bull., 31, 2254-2261 (1983); cited from earlier work
[8] = system: reserpine-induced hypothermia; assay: Anti-reserpine effect (reserpine-induced hypothermia); type: in vivo, mice (Std-ddY strain); conditions: 100 mg/kg orally; reserpine 5 mg/kg s.c.; rectal temperature at 4 hours; complete inhibition=100%
Experimental: A group of 5 male mice (Std-ddY strain, 22-25 g) was used for examining the antagonistic effect of the test compounds on reserpine-induced hypothermia, which is known as a screening method for the antidepressant drug.
Reserpine (5 mg/kg) was subcutaneously administered to the mice and further a test compound was orally administered thereto. Four hours after the administration, rectal temperature of the mice was measured. The effect of the test compounds was estimated by % inhibition (complete inhibition to the hypothermia by reserpine in non-dosed animals=100%).

[9] = 30 mg/kg, orally, scopolamine hydrobromide 1 mg/kg i.p., complete antagonism to motility level of non-dosed animals=100%

T2 sequence (P14842 whole entry): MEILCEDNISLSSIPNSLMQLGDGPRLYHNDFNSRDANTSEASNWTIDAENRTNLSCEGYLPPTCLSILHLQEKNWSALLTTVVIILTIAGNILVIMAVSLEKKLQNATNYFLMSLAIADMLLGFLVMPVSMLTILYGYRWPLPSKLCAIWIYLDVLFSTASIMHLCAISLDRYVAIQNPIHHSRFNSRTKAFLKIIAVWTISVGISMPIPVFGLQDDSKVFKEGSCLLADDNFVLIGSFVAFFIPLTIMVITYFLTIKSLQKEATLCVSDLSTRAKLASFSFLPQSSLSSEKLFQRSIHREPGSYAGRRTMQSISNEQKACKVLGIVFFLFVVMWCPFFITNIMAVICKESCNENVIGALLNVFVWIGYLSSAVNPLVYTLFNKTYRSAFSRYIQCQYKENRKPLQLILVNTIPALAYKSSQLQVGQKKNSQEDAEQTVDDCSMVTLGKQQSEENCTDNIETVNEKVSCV
T1 sequence (P61169 whole entry): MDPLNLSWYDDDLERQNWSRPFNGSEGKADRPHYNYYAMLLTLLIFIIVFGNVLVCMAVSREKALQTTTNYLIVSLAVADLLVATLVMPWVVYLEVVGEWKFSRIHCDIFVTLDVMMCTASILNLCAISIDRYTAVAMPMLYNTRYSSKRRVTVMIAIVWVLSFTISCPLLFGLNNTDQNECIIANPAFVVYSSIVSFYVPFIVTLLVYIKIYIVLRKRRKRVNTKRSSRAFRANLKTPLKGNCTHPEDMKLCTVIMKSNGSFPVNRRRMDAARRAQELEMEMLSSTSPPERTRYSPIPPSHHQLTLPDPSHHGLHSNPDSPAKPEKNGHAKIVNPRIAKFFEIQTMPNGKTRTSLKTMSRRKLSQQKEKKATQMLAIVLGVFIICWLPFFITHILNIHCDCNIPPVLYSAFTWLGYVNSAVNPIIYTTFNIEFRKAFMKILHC

SMILES | IC50 (dopamine (D2) receptor) [nM] | Improvement of scopolamine-induced deficit of spontaneous alternation ([3]; 2.0 mg/kg i.p.) [%] | Improvement of cycloheximide-induced amnesia (step-down latency) ([4]; 0.5 mg/kg i.p.) [%] | IC50 (serotonin (S2) receptor) [nM] | IC50 (serotonin (S1) receptor) [nM] | IC50 (adrenaline (α1) receptor) [nM] | response vs control in vivo at 100 mg/kg [5] [%] | Lethality of animals (mice) | further results
CN1CCN(c2nc3c(c(-c4ccccc4)n2)CCC3)CC1 [6,7-dihydro-2-(4-methyl-1-piperazinyl)-4-phenyl-5H-cyclopenta[d]pyrimidine] |  |  |  |  |  |  |  |  | Anti-inflammatory activity [1]: have anti-inflammatory activity
Fc1ccc(-c2nc(N3CCNCC3)nc3c2CCCCCC3)cc1 [Ex. 10, 2-(1-Piperazinyl)-4-(4-fluorophenyl)-5,6,7,8,9,10-hexahydrocyclooctapyrimidine] | 130 | 63.0 | 67.1 | 19 | 1300 | 1200 |  |  | inhibition in vivo at 3 mg/kg [2]: 50.6%
Fc1ccc(-c2nc(N3CCNCC3)nc3c2CCCCC3)cc1 [Ex. 2, 2-(1-piperazinyl)-4-(4-fluorophenyl)-6,7,8,9-tetrahydro-5H-cycloheptapyrimidine] | 750 | 39.1 | 93.7 | 9.6 | 3000 | 3400 | 135 | no animal was died | inhibition in vivo at 30 mg/kg [2]: 69.2%; Improvement of cycloheximide-induced amnesia (step-down latency) ([4]; 2.0 mg/kg i.p.): 72.8%
c1ccc(-c2nc(N3CCNCC3)nc3c2CCCCC3)cc1 [Ex. 7, 2-(1-Piperazinyl)-4-phenyl-6,7,8,9-tetrahydro-5H-cycloheptapyrimidine] | 2000 |  | 70.4 | 38 |  |  |  |  | inhibition in vivo at 30 mg/kg [2, 9]: 78.2%; Improvement of scopolamine-induced deficit of spontaneous alternation ([3]; 10.0 mg/kg i.p.): 44.0%
Fc1ccc(-c2nc(N3CCNCC3)nc3c2CCC3)cc1 [Ex. 1, 2-(1-piperazinyl)-4-(4-fluorophenyl)-6,7-dihydro-5H-cyclopentapyrimidine] | 920 |  | 33.8 | 29 | 750 | 1100 | 150 | no animal was died | inhibition in vivo at 3 mg/kg [2]: 60.7%; Improvement of scopolamine-induced deficit of spontaneous alternation ([3]; 0.02 mg/kg i.p.): 47.8%; Improvement of scopolamine-induced deficit of spontaneous alternation ([3]; 0.5 mg/kg i.p.): 51.9%; Improvement of cycloheximide-induced amnesia (step-down latency) ([4]; 2.0 mg/kg i.p.): 65.8%; Prolongation rate of survival time [6]: 36.7%
CN1CCN(c2nc3c(c(-c4ccccc4)n2)CCCCC3)CC1 [6,7,8,9-tetrahydro-2-(4-methyl-1-piperazinyl)-4-phenyl-5H-cyclohepta[d]pyrimidine] |  |  |  |  |  |  |  |  | Anti-inflammatory activity [1]: have anti-inflammatory activity
c1ccc(-c2nc(N3CCNCC3)nc3c2CCCCCC3)cc1 [Ex. 9, 2-(1-Piperazinyl)-4-phenyl-5,6,7,8,9,10-hexahydrocyclooctapyrimidine] |  | 36.7 | 85.8 |  |  |  |  | no animal was died | inhibition in vivo at 10 mg/kg ([2]; 10 mg/kg, orally, scopolamine hydrobromide 1 mg/kg i.p., complete antagonism to motility level of non-dosed animals=100%): 60.4%
c1ccc(CN2CCN(c3nc4c(c(-c5ccccc5)n3)CCCC4)CC2)cc1 [4-phenyl-2-(4-benzyl-1-piperazinyl)-5,6,7,8-tetrahydroquinazoline] |  |  |  |  |  |  |  |  | Hypoglycemic activity [7]: weak hypoglycemic activity
c1ccc(-c2nc(N3CCNCC3)nc3c2CCCC3)cc1 [4-phenyl-2-(1-piperazinyl)-5,6,7,8-tetrahydroquinazoline] |  |  |  |  |  |  |  |  | Hypoglycemic activity [7]: weak hypoglycemic activity
CN1CCN(c2nc3c(c(-c4ccc(F)cc4)n2)CCCC3)CC1 [Ex. 28] | 350 |  |  | 87 |  |  | 156 |  | Inhibitory ratio (% inhibition of reserpine-induced hypothermia) [8]: 37%; inhibition in vivo at 30 mg/kg [2, 9]: 96.4%
